# Results taken from patent US6387947B1, “Antimicrobial cosmetic compositions” (E-L Management Corp., priority 1997, dated 2002).
# “Also recorded” adds a separate entry of the source.
# Tests used:
# [1] = tested on: lymphocyte adhesion to endothelial cells; experiment: inhibition of lymphocyte adhesion to endothelial cells; type: cell-based, human
# Description: Endothelial cells are grown to confluence and washed thoroughly with basal media prior to the experiment to remove all fetal calf serum. The test compounds are then added to the endothelial culture well and incubated for 2 hours. IL-1β is added to stimulated expression of adhesion molecules on the endothelial cells before lymphocytes are added. Lymphocytes are isolated from blood collected from adult human subjects and added to the endothelial culture wells. PHA is added to stimulate adhesion molecule expression in the lymphocytes and the cultures incubated overnight. After a brief washing procedure, cells are incubated with Rose Bengal, and the number of adherent cells assessed by measuring the absorbance at 570 nm.
# [2] = tested on: PLA2 enzyme obtained from snake venom; settings: assay concentrations 0.01, 0.1 and 1 mg/ml
# Description: The enzyme reaction is accomplished in a cuvette containing […] of phosphate buffered saline. Fluorometric substrate NBD-C6-HPC is solubilized 1 mM in EtOH, and is diluted in the reaction mixture to yield a 10 μM final concentration. The assay is initiated with the addition of 0.001 units per μl of PLA2 enzyme obtained from snake venom. Enzyme activity is monitored either with or without the presence of potential inhibitors. […] Prior to enzyme addition, samples are measured fluorometrically at excitation 470 and emission 570 to determine background level of fluorescensce. Following enzyme addition, samples are monitored every 15 minutes over a 60 minute period.
# Yeast = experiment: microbial challenge of nonionic oil-in-water emulsion, pool 4; type: cell-based; settings: for concentration of microbes: 0.473% in emulsion
# Description: (§1) A nonionic oil-in-water emulsion is prepared containing 0.473% 3-furan carboxylic acid. The formulation is divided into five portions, each one getting an inoculation at day 0, and a reinoculation after three weeks, of one of the following microbial cultures: (1)Enterics; (2) Pseudomonas; (3)Staphylococcus; (4)Yeast; and (5)Mold. The concentration of microbes in each individual formulation is calculated on the day of the inoculation, and then again calculated on day 2, and at the end of one, two, three (pre-reinoculation) and four weeks, at a variety of pH values. These are also compared with formulations containing 2-furan carboxylic acid and an identical series of microbes, and an acid pH control emulsion without a furan carboxylic acid added. All numbers, other than those listed as “<10”, are log base 10; thus, for example, “6.6” is equivalent to the presence of […] bacteria. Entries of <10 indicate less than 10 colony forming units, the lowest level of detection.
# [3] = antiirritant effect against Balsam of Peru on ventral forearms of volunteers; type: in vivo, human; settings: 0.1% in hydroalcohol 1:1, applied twenty minutes before Balsam of Peru; Minolta Chromameter; seven volunteers
# Description: Seven volunteers with a history of skin sensitivity to Balsam of Peru are chosen for the study.
# The test compounds are applied to the ventral forearms of panelists. The material is allowed to absorb for twenty minutes and then Balsam of Peru, an irritant is applied on the test sites. Skin irritation is measured in terms of increase in skin redness. The degree of redness is measured with a Minolta Chromameter and compared with the controls, the positive control being skin treated with Balsam of Peru alone, and the negative control being a skin site treated with 10% cola solution(a known antiirritant), and challenged like the test products.
# Pseudomonas [4] = experiment: microbial challenge of nonionic oil-in-water emulsion, pool 2; type: cell-based; settings: for concentration of microbes: 0.473% in emulsion
# Description: as §1
# Enterics [5] = experiment: microbial challenge of nonionic oil-in-water emulsion, pool 1; type: cell-based; settings: for concentration of microbes: 0.473% in emulsion
# Description: as §1
# Staphylococcus = experiment: microbial challenge of nonionic oil-in-water emulsion, pool 3; type: cell-based; settings: for concentration of microbes: 0.473% in emulsion
# Description: The formulation is divided into five portions, each one getting an inoculation at day 0, and a reinoculation after three weeks, of one of the following microbial cultures: (1)Enterics; (2) Pseudomonas; (3)Staphylococcus; (4)Yeast; and (5)Mold. The concentration of microbes in each individual formulation is calculated on the day of the inoculation, and then again calculated on day 2, and at the end of one, two, three (pre-reinoculation) and four weeks, at a variety of pH values. These are also compared with formulations containing 2-furan carboxylic acid and an identical series of microbes, and an acid pH control emulsion without a furan carboxylic acid added. All numbers, other than those listed as “<10”, are log base 10; thus, for example, “6.6” is equivalent to the presence of […] bacteria. Entries of <10 indicate less than 10 colony forming units, the lowest level of detection.
# Enterics [6] = experiment: microbial challenge of nonionic oil-in-water emulsion, pool 1; type: cell-based; settings: 0.473% in emulsion
# Mold = experiment: microbial challenge of nonionic oil-in-water emulsion, pool 5; type: cell-based; settings: for concentration of microbes: 0.473% in emulsion
# Description: as §1
# Pseudomonas [7] = experiment: microbial challenge of nonionic oil-in-water emulsion, pool 2; type: cell-based; settings: 0.473% in emulsion
compound,measurement,setting,value
O=C(O)c1ccoc1 [3-furan carboxylic acid],"inhibition of adhesion of polymorphonuclear leukocytes (PMNs) to activated endothelial cells, in words",[1],ability to inhibit the adhesion
same,"inhibition of lymphocyte adhesion, in words (absorbance at 570 nm, Rose Bengal)","[1]; concentrations of 0.5% and 1%, IL-1β and PHA stimulated",very potent inhibitors of lymphocyte adhesion
same,"PLA2 inhibition, in words",[2],exceptionally active
same,"antimicrobial activity against yeast, in words",Yeast,substantially reducing the growth; also recorded: superior to 2-furan carboxylic acid
same,concentration of microbes,"Yeast; pH 3.0, Day 0",5.7 log base 10
same,concentration of microbes,"Yeast; pH 3.0, Day 2",<10 colony forming units
same,concentration of microbes,"Yeast; pH 3.0, Week 1",<10 colony forming units
same,concentration of microbes,"Yeast; pH 3.0, Week 2",<10 colony forming units
same,concentration of microbes,"Yeast; pH 3.0, Week 3",<10 colony forming units
same,concentration of microbes,"Yeast; pH 3.0, Week 4",<10 colony forming units
same,concentration of microbes,"Yeast; pH 4.0, Day 0",5.7 log base 10
same,concentration of microbes,"Yeast; pH 4.0, Day 2",2.5 log base 10
same,concentration of microbes,"Yeast; pH 4.0, Week 1",<10 colony forming units
same,concentration of microbes,"Yeast; pH 4.0, Week 2",<10 colony forming units
same,concentration of microbes,"Yeast; pH 4.0, Week 3",<10 colony forming units
same,concentration of microbes,"Yeast; pH 4.0, Week 4",<10 colony forming units
same,concentration of microbes,"Yeast; pH 5.0, Day 0",5.7 log base 10
same,concentration of microbes,"Yeast; pH 5.0, Day 2",2.5 log base 10
same,concentration of microbes,"Yeast; pH 5.0, Week 1",2.7 log base 10
same,concentration of microbes,"Yeast; pH 5.0, Week 2",1.7 log base 10
same,concentration of microbes,"Yeast; pH 5.0, Week 3",2.0 log base 10
same,concentration of microbes,"Yeast; pH 5.0, Week 4",1.8 log base 10
same,effectiveness in preventing the onset of irritation (reduction of skin redness),[3],48%
same,"antimicrobial activity against Pseudomonas, in words",Pseudomonas [4],capable of preventing growth
same,concentration of microbes,"Pseudomonas [4]; pH 3.0, Week 3",<10 colony forming units
same,concentration of microbes,"Pseudomonas [4]; pH 4.0, Week 1",<10 colony forming units
same,concentration of microbes,"Pseudomonas [4]; pH 4.0, Week 2",<10 colony forming units
same,concentration of microbes,"Pseudomonas [4]; pH 4.0, Week 3",<10 colony forming units
same,concentration of microbes,"Pseudomonas [4]; pH 5.0, Week 1",<10 colony forming units
same,concentration of microbes,"Pseudomonas [4]; pH 5.0, Week 2",<10 colony forming units
same,concentration of microbes,"Pseudomonas [4]; pH 5.0, Week 4",<10 colony forming units
same,"antimicrobial activity against Enterics, in words",Enterics [5],capable of preventing growth
same,concentration of microbes,"Enterics [5]; pH 3.0, Week 1",<10 colony forming units
same,concentration of microbes,"Enterics [5]; pH 3.0, Week 2",<10 colony forming units
same,concentration of microbes,"Enterics [5]; pH 3.0, Week 3",<10 colony forming units
same,concentration of microbes,"Enterics [5]; pH 4.0, Day 0",6.6 log base 10
same,concentration of microbes,"Enterics [5]; pH 4.0, Week 1",<10 colony forming units
same,concentration of microbes,"Enterics [5]; pH 4.0, Week 2",<10 colony forming units
same,concentration of microbes,"Enterics [5]; pH 5.0, Week 1",<10 colony forming units
same,concentration of microbes,"Enterics [5]; pH 5.0, Week 3",<10 colony forming units
same,"antimicrobial activity against Staphylococcus, in words",Staphylococcus,capable of preventing growth
same,concentration of microbes,"Staphylococcus; pH 3.0, Day 0",6.3 log base 10
same,concentration of microbes,"Staphylococcus; pH 3.0, Day 2",<10 colony forming units
same,concentration of microbes,"Staphylococcus; pH 3.0, Week 1",<10 colony forming units
same,concentration of microbes,"Staphylococcus; pH 3.0, Week 2",<10 colony forming units
same,concentration of microbes,"Staphylococcus; pH 3.0, Week 3",<10 colony forming units
same,concentration of microbes,"Staphylococcus; pH 3.0, Week 4",<10 colony forming units
same,concentration of microbes,"Staphylococcus; pH 4.0, Day 0",6.3 log base 10
same,concentration of microbes,"Staphylococcus; pH 4.0, Day 2",<10 colony forming units
same,concentration of microbes,"Staphylococcus; pH 4.0, Week 1",<10 colony forming units
same,concentration of microbes,"Staphylococcus; pH 4.0, Week 2",<10 colony forming units
same,concentration of microbes,"Staphylococcus; pH 4.0, Week 3",<10 colony forming units
same,concentration of microbes,"Staphylococcus; pH 4.0, Week 4",<10 colony forming units
same,concentration of microbes,"Staphylococcus; pH 5.0, Day 0",6.3 log base 10
same,concentration of microbes,"Staphylococcus; pH 5.0, Day 2",<10 colony forming units
same,concentration of microbes,"Staphylococcus; pH 5.0, Week 1",<10 colony forming units
same,concentration of microbes,"Staphylococcus; pH 5.0, Week 2",<10 colony forming units
same,concentration of microbes,"Staphylococcus; pH 5.0, Week 3",<10 colony forming units
same,concentration of microbes,"Staphylococcus; pH 5.0, Week 4",<10 colony forming units
same,concentration of microbes,"Enterics [6]; pH 3.0, Day 0",6.6 log base 10
same,concentration of microbes,"Enterics [6]; pH 3.0, Day 2",<10 colony forming units
same,concentration of microbes,"Enterics [6]; pH 3.0, Week 4",<10 colony forming units
same,concentration of microbes,"Enterics [6]; pH 4.0, Day 2",<10 colony forming units
same,concentration of microbes,"Enterics [6]; pH 4.0, Week 3",<10 colony forming units
same,concentration of microbes,"Enterics [6]; pH 4.0, Week 4",<10 colony forming units
same,concentration of microbes,"Enterics [6]; pH 5.0, Day 0",6.6 log base 10
same,concentration of microbes,"Enterics [6]; pH 5.0, Day 2",<10 colony forming units
same,concentration of microbes,"Enterics [6]; pH 5.0, Week 2",<10 colony forming units
same,concentration of microbes,"Enterics [6]; pH 5.0, Week 4",<10 colony forming units
same,"antimicrobial activity against Mold, in words",Mold,capable of preventing growth; also recorded: superior to 2-furan carboxylic acid
same,concentration of microbes,"Mold; pH 3.0, Day 0",5.2 log base 10
same,concentration of microbes,"Mold; pH 3.0, Day 2",<10 colony forming units
same,concentration of microbes,"Mold; pH 3.0, Week 1",<10 colony forming units
same,concentration of microbes,"Mold; pH 3.0, Week 2",<10 colony forming units
same,concentration of microbes,"Mold; pH 3.0, Week 3",<10 colony forming units
same,concentration of microbes,"Mold; pH 3.0, Week 4",<10 colony forming units
same,concentration of microbes,"Mold; pH 4.0, Day 0",5.2 log base 10
same,concentration of microbes,"Mold; pH 4.0, Day 2",<10 colony forming units
same,concentration of microbes,"Mold; pH 4.0, Week 1",<10 colony forming units
same,concentration of microbes,"Mold; pH 4.0, Week 2",<10 colony forming units
same,concentration of microbes,"Mold; pH 4.0, Week 3",<10 colony forming units
same,concentration of microbes,"Mold; pH 4.0, Week 4",<10 colony forming units
same,concentration of microbes,"Mold; pH 5.0, Day 0",5.2 log base 10
same,concentration of microbes,"Mold; pH 5.0, Day 2",<10 colony forming units
same,concentration of microbes,"Mold; pH 5.0, Week 1",<10 colony forming units
same,concentration of microbes,"Mold; pH 5.0, Week 2",<10 colony forming units
same,concentration of microbes,"Mold; pH 5.0, Week 3",<10 colony forming units
same,concentration of microbes,"Mold; pH 5.0, Week 4",<10 colony forming units
same,concentration of microbes,"Pseudomonas [7]; pH 3.0, Day 2",<10 colony forming units
same,concentration of microbes,"Pseudomonas [7]; pH 3.0, Week 1",<10 colony forming units
same,concentration of microbes,"Pseudomonas [7]; pH 3.0, Week 2",<10 colony forming units
same,concentration of microbes,"Pseudomonas [7]; pH 3.0, Week 4",<10 colony forming units
same,concentration of microbes,"Pseudomonas [7]; pH 4.0, Day 2",<10 colony forming units
same,concentration of microbes,"Pseudomonas [7]; pH 4.0, Week 4",<10 colony forming units
same,concentration of microbes,"Pseudomonas [7]; pH 5.0, Day 2",<10 colony forming units
same,concentration of microbes,"Pseudomonas [7]; pH 5.0, Week 3",<10 colony forming units
"COc1cc(/C=C/C(=O)O)ccc1O [Ferulic acid, ferulic acid]",effectiveness in preventing the onset of irritation (reduction of skin redness),[3],72%
